Two compounds from article PMC4933336, “Examining the Effects of Sodium Ions on the Binding of Antagonists to Dopamine D2 and D3 Receptors” (PLoS ONE, 2016) can be followed below.

The assay addresses T1, dopamine D3 receptor (D3), Sf9 (Homo sapiens, UniProt P35462).
T1 construct: gene DRD3; full-length from pCMV5-hD3, no tag mentioned; membranes of Sf9 cells (baculovirus)
The experiment in a line: [3H]spiperone competition binding, Sf9 membranes. The note with it: read-out: D3 / + NaCl.

The structures appear in SMILES notation.

T1 sequence (P35462 whole entry): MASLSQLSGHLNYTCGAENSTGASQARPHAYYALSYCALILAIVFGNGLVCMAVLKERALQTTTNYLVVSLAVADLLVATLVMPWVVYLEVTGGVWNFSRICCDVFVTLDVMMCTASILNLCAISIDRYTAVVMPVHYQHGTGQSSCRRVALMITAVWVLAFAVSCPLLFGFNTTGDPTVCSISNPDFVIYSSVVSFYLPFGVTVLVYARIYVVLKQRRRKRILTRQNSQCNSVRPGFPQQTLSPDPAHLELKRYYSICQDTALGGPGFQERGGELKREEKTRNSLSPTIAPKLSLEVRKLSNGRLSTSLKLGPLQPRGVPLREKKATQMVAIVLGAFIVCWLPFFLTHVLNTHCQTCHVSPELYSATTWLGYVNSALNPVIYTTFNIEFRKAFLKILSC

Take `COc1ccccc1N1CCN(CCCCNC(=O)c2ccc(-c3ccc(C(C)=O)cc3)cc2)CC1` [GR 103691]: the IC50 was determined as 0.46 nM. The figure for `CCCN(CCC)C1Cc2cc(OC)c(OC)cc2C1` [U 99194] is 532 nM.
